Here are results for four compounds from publication PMC12163684, “Gunacins: Novel Benzo[g]chromene Derivatives from the Fungus Exobasidium sp. and Their Potent Anti-Leishmania and Trypanosoma Activities” (ACS Omega, 2025).

Structures are written as SMILES. Read-outs that look alike come from different tables or passages of the source.

What all share (format): cell-based
For assay [1], the system named is Jurkat T-lymphocyte cell line. As to the kind of experiment: Cytotoxicity, Hoechst 33258 staining and flow cytometry (FACS LSRII). The following applies: 24 h incubation, flow cytometry, read-out: EC50 ± SEM Jurkat. The procedure: To evaluate the cytotoxicity of the isolated compounds, the immortalized T-lymphocyte cell line Jurkat was cultured in 96-well polypropylene U-bottom plates at a density of approximately 2 × 10^5 cells per well in RPMI1640 medium, with a total volume of 300 μL per well. Cells cultured in RPMI1640 medium alone and in RPMI1640 medium with DMSO were used as negative controls. After 24 h of incubation with the isolated compounds, dissolved in 10 mM DMSO, the cells were washed with PBS solution containing 0.02% gelatin and 0.01% sodium azide. Following this, the cells were stained with the fluorescent dye Hoechst 33258 and analyzed by flow cytometry using a FACS LSRII instrument (BD Biosciences, San Jose, USA) and FlowJo 10 software (Tree Star, Ashland, USA). Initial assays were conducted at concentrations of 5, 25, 50, 100, and 125 μM, with subsequent measurements at concentrations adjusted based on the results of the initial assays, each performed in triplicate. EC50 values were determined using Quest Graph software and the dose–response four parameters regression model. The EC50 values were determined from three independent experiments.

Assay [2] relates to HeLa adenocarcinoma cell line. Nature of the assay: Effect on cell morphology, fluorescence microscopy (MitoTracker Red CMXRos, Phalloidin, DAPI). The following applies: 24 h; for concentration at which effects on morphology / mitochondrial signal were observed, HeLa cells: tested at 5, 25, 50, 100, 125 μM. The method, then:
(§1) MDCK and RAT cells were cultured in DMEM with 10% FBS at 37 °C in a 5% CO2 atmosphere as described previously. , To assess the toxic effects of the compounds on proliferating cells, cells were seeded in 24-well plates for 24 h to reach ∼15% confluence, and cells were treated in triplicate with increasing concentrations of the isolated compounds for an additional 24 h. Cells were washed with 1× PBS, fixed in staining solution (0.5% crystal violet, 20% methanol) for 10 min, and gently washed five times in 1× PBS. The fixed cells were then dissolved in lysis solution (0.1 M sodium citrate, 25% ethanol, pH 4.2) for 30 min, transferred to a 96-well plate in H2O, and the OD^590 was determined. EC50 values were determined using GraphPad Prism software and the dose–response fit equation. The EC50 values were determined from two independent experiments. Additionally, the impact of the isolated substances on the morphology of the HeLa adenocarcinoma cell line and primary human skin fibroblasts was examined by using fluorescence microscopy. Cells were cultured in DME medium supplemented with 10% FCS (Gibco, Invitrogen, Carlsbad, USA) on glass coverslips in 24-well plates until reaching approximately 50% confluence. The cells were treated with varying concentrations of isolated compounds dissolved in DMSO. Wells containing DMEM with DMSO served as the negative control. After 24 h cultivation, the cells were incubated with MitoTracker Red CMXRos (10 min) to label mitochondria, then fixed with 3.7% paraformaldehyde in PBS (20 min, room temperature), permeabilized with 0.1% Triton X-100 in PBS, and blocked with 1% BSA in PBS. The cells were then stained with Phalloidin-Alexa Fluor488 conjugate. All fluorescence reagents were purchased from Molecular Probes, Invitrogen, Carlsbad, CA, USA. Nuclei were stained with Fluoroshield DAPI (Sigma-Aldrich), and cells were examined using an IX71 microscope equipped with a DP70 camera and a 40× objective. Assays were performed at concentrations of 5, 25, 50, 100, and 125 μM.

For assay [3], the system named is primary human skin fibroblasts. The description is as above. The following applies: 24 h; for concentration at which effects on morphology / mitochondrial signal were observed, fibroblasts: tested at 5, 25, 50, 100, 125 μM. The method, then:
as §1

Another assay relates to T. b. brucei 427. As to the kind of experiment: Anti-trypanosomal activity, resazurin (AB assay), bloodstream form. The note with it: Trypanosoma brucei, 72 h, axenic, 48 h + 24 h resazurin. The procedure: (§2) The bloodstream forms of T. b. gambiense LiTat 1.3, T. b. brucei 427, and T. b. evansi AnTat 3/3 were grown in HMI-11 medium pH 7.3 supplemented with 36 mM sodium bicarbonate, 100 U/mL penicillin/streptomycin, and 10% fetal bovine serum at 37 °C and 5% CO2. The bloodstream form of Trypanosoma congolense IL3000 (generous gift from Liam Morrison) was cultured in TcBSF-1 medium pH 7.3 supplemented with 26 mM sodium bicarbonate, 25 mM HEPES, 5.5 mM glucose, 1 mM sodium pyruvate, 0.04 mM adenosine, 0.1 mM hypoxanthine, 0.02 mM thymidine, 0.02 mM bathocuproine, 2 mM L-glutamine, 0.2 mM 2-mercaptoethanol, 100 U/ml penicillin/streptomycin, and 20% goat serum New Zealand origin (Gibco) at 34 °C, 5% CO2. The assay for anti-trypanosomal activity was performed using the resazurin sodium salt dye (AB Assay) according to the published protocol in a 96-well plate format. Parasites at a number of 5 × 10^3 per well (T. b. brucei and T. b. gambiense) or 1 × 10^4 per well (T. b. evansi) were incubated with different drug concentrations (2-fold serial dilutions) in a volume of 200 μL of the medium. Medium with 1% DMSO (the highest concentration of the solvent used in the assay) was used to confirm no effect of the solvent on the cell growth. The plates were incubated for 48 h at the appropriate temperature. Then, 20 μL of resazurin sodium salt solution (0.125 mg/mL in 1× PBS, pH 7. 4) was added to each well, and the cells were incubated for another 24 h under the same conditions. The fluorescence signal was quantified using a Tecan Infinite M200 plate reader at excitation and emission wavelengths of 560 and 590 nm, respectively. The EC50 values were calculated using GraphPad Prism 9.5.1 by nonlinear regression with a variable slope. Each EC50 value is the mean ± standard error of the mean of three separate experiments performed in duplicate.

In assay [4] the test system is Trypanosoma congolense IL3000. The assay is described as above. The note with it: 72 h, axenic, 48 h + 24 h resazurin, read-out: EC50 T. congolense. The method, then: as §2
In assay [5] the test system is L. mexicana (MNYC/BZ/1962/M379) promastigote. Nature of the assay: Anti-Leishmania activity, AB assay, axenic promastigotes. The procedure: (§3) Promastigote stages of L. mexicana (MNYC/BZ/1962/M379), a generous gift from Vyacheslav Yurchenko, were cultured in M199 medium pH 7.4 supplemented with 2 μg/mL biopterin, 2 μg/mL hemin, 25 mM HEPES, 100 U/mL penicillin/streptomycin, and 10% heat-inactivated FBS (BioSera) pH 7.4 at 25 °C. The amastigotes were differentiated in vitro from late log/stationary promastigote cultures and cultivated in Schneider’s Drosophila Medium (SIM) at pH 5.5, supplemented with 1.5 μg/mL hemin, 100 U/mL penicillin/streptomycin, and 20% heat-inactivated FBS (BioSera) at pH 5.5, at 32 °C, and 5% CO2. Following a three-day period, the promastigotes underwent a transformation into amastigotes, which were then maintained in SIM.
(§4) To estimate the EC50, the AB assay, as previously described, was employed. The results are expressed as EC50, representing the dose of the compound required to inhibit cellular growth by 50%. Each EC50 value is the mean ± the standard error of the mean derived from at least three separate experiments, each performed in duplicate.

Assay [6] has as its system L. mexicana (MNYC/BZ/1962/M379) amastigote. As to the kind of experiment: Anti-Leishmania activity, AB assay, axenic amastigotes. The procedure:
as §3, §4

`COc1cc(O)c2c(c1)C(=O)C1=C(C2=O)[C@H](O)[C@@H](O)[C@@H](C)O1` (relative stereo) [Compound 3, (2R,3R,4S)-3,4,6-trihydroxy-8-methoxy-2-methyl-3,4-dihydro-2H-benzo[g]chromene-5,10-dione]: the EC50 came out at 16.5 ± 1.3 µM in assay [1] (Homo sapiens, Jurkat, 24 h); 4.3 µM with T. b. brucei 427; 5.8 µM in assay [4]; 8.6 µM in assay [5]; 5.6 µM in assay [6]. In addition, in assay [2], the “concentration causing complete loss of live adherent cells, HeLa cells” value came to 125 µM. For the same compound, the “concentration at which effects on morphology / mitochondrial signal were observed, HeLa cells” value in assay [2] was 25 μM. Moreover, in assay [3], the “concentration at which effects on morphology / mitochondrial signal were observed, fibroblasts” value was determined as 125 μM.

As for `COc1cc(O)c2c(c1)C(=O)C1=C(C2=O)[C@@H](OC(C)=O)[C@@H](O)[C@@H](C)O1` [Compound 1, (2R,3S,4R)-3,6-dihydroxy-8-methoxy-2-methyl-5,10-dioxo-3,4,5,10-tetrahydro-2H-benzo[g]chromen-4-yl acetate], the concentration for a half-maximal effect (EC50) in assay [1] is 1.7 ± 0.1 µM; in assay [1] (Homo sapiens, Jurkat, 24 h), approximately 1.5 µM; with T. b. brucei 427 it was 0.06 µM; in assay [4], 0.02 µM; in assay [5] it was 0.22 µM; in assay [6], 0.01 µM. In addition, in assay [2], the “concentration at which effects on morphology / mitochondrial signal were observed, HeLa cells” value worked out at 125 μM. For the same compound, the “concentration at which effects on morphology / mitochondrial signal were observed, fibroblasts” value in assay [3] was 5 μM.

In the case of `COc1cc(O)c2c(c1)C(=O)C1=C(C2=O)[C@@H](O)[C@@H](OC(C)=O)[C@@H](C)O1` [Compound 5, (2R,3R,4R)-4,6-dihydroxy-8-methoxy-2-methyl-5,10-dioxo-3,4,5,10-tetrahydro-2H-benzo[g]chromen-3-yl acetate], the EC50 in assay [1] is 1.6 ± 0.1 µM; in assay [1] (Homo sapiens, Jurkat, 24 h) it was approximately 1.5 µM; in the assay with T. b. brucei 427, 0.06 µM; in assay [4] it was 0.02 µM; in assay [5] it was 0.24 µM; in assay [6] it was 0.01 µM. Further, the “concentration at which effects on morphology / mitochondrial signal were observed, HeLa cells” value in assay [2] came to 125 μM. Moreover, the “concentration at which effects on morphology / mitochondrial signal were observed, fibroblasts” value in assay [3] is 5 μM.

As to `COc1cc(O)c2c(c1)C(=O)C1=C(C[C@@H](OC(C)=O)[C@@H](C)O1)C2=O` [Compound 7, (2R,3R)-6-hydroxy-8-methoxy-2-methyl-5,10-dioxo-3,4,5,10-tetrahydro-2H-benzo[g]chromen-3-yl acetate], the half-maximal effective concentration (EC50) is 93.2 ± 5.9 µM in assay [1] (Homo sapiens, Jurkat, 24 h); 0.9 µM in the assay on T. b. brucei 427; 2.4 µM in assay [4]; 3.6 µM in assay [5]; 2.5 µM in assay [6]. In assay [2], the “concentration at which effects on morphology / mitochondrial signal were observed, HeLa cells” value is reported as more than 125 μM. Besides, the “concentration causing complete loss of live adherent cells, fibroblasts” value in assay [3] is 125 µM. In addition, in assay [3], the “concentration at which effects on morphology / mitochondrial signal were observed, fibroblasts” value is more than 25 μM.
